Experimental findings from patent publication US8916702B2 (priority 2012, dated 2014) are described below.

For the first experiment, the system named is HCV pseudoparticles (genotype 1a HCV E1 and E2 envelope, H77C isolate). Description: microbe, parasite or virus in culture. The settings on record: Hepatitis C virus, Huh-7, 48 h, HCV pseudoparticles, Huh7 cells, luciferase 2 days after infection; average of duplicates. It is filed as cell-based.
What is called EC50 is the concentration that produces a half-maximal response. With `O=C(NCC[C@H](NC(=O)c1ccc(Nc2nc(NC3(c4ccc(Cl)cc4)CC3)nc(OCC(F)(F)F)n2)cc1)C(=O)O)C(=O)Nc1cccc(OC(F)(F)F)c1` [Compound 3619], the EC50 is 0.084 nM. For the compound `CC(C)c1cccc(NC(=O)C(=O)NCC[C@H](NC(=O)c2ccc(Nc3nc(NC4(c5ccc(Cl)cc5)CC4)nc(OCC(F)(F)F)n3)cc2)C(=O)O)c1` [Compound 3627], the 50% effective concentration (EC50) came out at 0.1 nM. The same measure, in the same setting: under `CC(F)Oc1cccc(NC(=O)C(=O)NCC[C@H](NC(=O)c2ccc(Nc3nc(NC4(c5ccc(Cl)cc5)CC4)nc(OCC(F)(F)F)n3)cc2)C(=O)O)c1` (some centres unmarked) [Compound 3633] stands 0.058 nM; under `O=C(NCC[C@H](NC(=O)c1ccc(Nc2nc(NC3(c4ccc(Cl)cc4)CC3)nc(OCC(F)(F)F)n2)cc1)C(=O)O)C(=O)Nc1ccc(Oc2ccccc2)nc1` [Compound 3640], 16.1 nM; under `CC(C)(O)C=Cc1cccc(NC(=O)C(=O)NCC[C@H](NC(=O)c2ccc(Nc3nc(NC4(c5ccc(Cl)cc5)CC4)nc(OCC(F)(F)F)n3)cc2)C(=O)O)c1` [Compound 3648], 0.2 nM.

The same experiment, now with this note: Hepatitis C virus, Huh-7, 48 h, read-out: Activity (EC50 class), HCV pseudoparticles, Huh7 cells, luciferase 2 days after infection; average of duplicates.
As to `COC(=O)[C@H](CCNC(=O)C(=O)Nc1cccc(C#CC(C)(C)Cl)c1)NC(=O)c1ccc(Nc2nc(NC3(c4ccc(Cl)cc4)CC3)nc(OCC(F)(F)F)n2)cc1` [Compound 3600], the 50% effective concentration (EC50) lay in the range of 0.01 to 10 nM. Still for that read-out and setting: under `COC(=O)[C@H](CCNC(=O)C(=O)Nc1cccc(C2=NC(C)=CC2)c1)NC(=O)c1ccc(Nc2nc(NC3(c4ccc(Cl)cc4)CC3)nc(OCC(F)(F)F)n2)cc1` [Compound 3601] stands 0.01 to 10 nM.

In the case of `COC(=O)[C@H](CCNC(=O)C(=O)Nc1cccc(Oc2ccccn2)c1)NC(=O)c1ccc(Nc2nc(NC3(c4ccc(Cl)cc4)CC3)nc(OCC(F)(F)F)n2)cc1` [Compound 3602], the concentration giving a half-maximal response (EC50) lay within 0.01 to 10 nM. Same read-out and setting: under `COC(=O)[C@H](CCNC(=O)C(=O)Nc1cccc(-c2cccnc2)c1)NC(=O)c1ccc(Nc2nc(NC3(c4ccc(Cl)cc4)CC3)nc(OCC(F)(F)F)n2)cc1` [Compound 3604] stands 0.01 to 10 nM; under `COC(=O)[C@H](CCNC(=O)C(=O)Nc1cccc(-n2cnnc2)c1)NC(=O)c1ccc(Nc2nc(NC3(c4ccc(Cl)cc4)CC3)nc(OCC(F)(F)F)n2)cc1` [Compound 3605], 0.01 to 10 nM. Still for that read-out and setting: for `COC(=O)[C@H](CCNC(=O)C(=O)Nc1cccc(-c2noc(C)n2)c1)NC(=O)c1ccc(Nc2nc(NC3(c4ccc(Cl)cc4)CC3)nc(OCC(F)(F)F)n2)cc1` [Compound 3606] the value was 0.01 to 10 nM; for `COC(=O)[C@H](CCNC(=O)C(=O)Nc1cccc(-c2nnnn2C)c1)NC(=O)c1ccc(Nc2nc(NC3(c4ccc(Cl)cc4)CC3)nc(OCC(F)(F)F)n2)cc1` [Compound 3607], 0.01 to 10 nM. Same read-out and setting: under `COC(=O)[C@H](CCNC(=O)C(=O)Nc1cccc(-c2c[nH]cn2)c1)NC(=O)c1ccc(Nc2nc(NC3(c4ccc(Cl)cc4)CC3)nc(OCC(F)(F)F)n2)cc1` [Compound 3608] stands 0.01 to 10 nM.

With `COC(=O)[C@H](CCNC(=O)C(=O)Nc1cccc(CCC(N)O)c1)NC(=O)c1ccc(Nc2nc(NC3(c4ccc(Cl)cc4)CC3)nc(OCC(F)(F)F)n2)cc1` (some centres unmarked) [Compound 3609], the EC50 lay in the range of 0.01 to 10 nM. Still for that read-out and setting: under `COC(=O)[C@H](CCNC(=O)C(=O)Nc1cccc(-n2ccnc2)c1)NC(=O)c1ccc(Nc2nc(NC3(c4ccc(Cl)cc4)CC3)nc(OCC(F)(F)F)n2)cc1` [Compound 3610] stands 0.01 to 10 nM.

`O=C(NCC[C@H](NC(=O)c1ccc(Nc2nc(NC3(c4ccc(Cl)cc4)CC3)nc(OCC(F)(F)F)n2)cc1)C(=O)O)C(=O)Nc1ccc(Cl)nc1` [Compound 3611]: the EC50 fell in the range of 0.01 to 10 nM. Still for that read-out and setting: for `COC(=O)[C@H](CCNC(=O)C(=O)Nc1cccc(OCc2ccccc2)c1)NC(=O)c1ccc(Nc2nc(NC3(c4ccc(Cl)cc4)CC3)nc(OCC(F)(F)F)n2)cc1` [Compound 3612] the value was 0.01 to 10 nM; for `CCc1cccc(NC(=O)C(=O)NCC[C@H](NC(=O)c2ccc(Nc3nc(NC4(c5ccc(Cl)cc5)CC4)nc(OCC(F)(F)F)n3)cc2)C(=O)O)c1` [Compound 3614], 0.01 to 10 nM. Still for that read-out and setting: under `NC(=O)c1cccc(NC(=O)C(=O)NCC[C@H](NC(=O)c2ccc(Nc3nc(NC4(c5ccc(Cl)cc5)CC4)nc(OCC(F)(F)F)n3)cc2)C(=O)O)c1` [Compound 3615] stands 0.01 to 10 nM; under `O=C(NCC[C@H](NC(=O)c1ccc(Nc2nc(NC3(c4ccc(Cl)cc4)CC3)nc(OCC(F)(F)F)n2)cc1)C(=O)O)C(=O)Nc1cccc(C(=O)Nc2ccccc2)c1` [Compound 3617], 0.01 to 10 nM.

In the case of `O=C(NCC[C@H](NC(=O)c1ccc(Nc2nc(NC3(c4ccc(Cl)cc4)CC3)nc(OCC(F)(F)F)n2)cc1)C(=O)O)C(=O)Nc1cccc(C(=O)c2ccccc2)c1` [Compound 3618], the EC50 is 0.01 to 10 nM. On the same count and under the same terms, under `O=C(NCC[C@H](NC(=O)c1ccc(Nc2nc(NC3(c4ccc(Cl)cc4)CC3)nc(OCC(F)(F)F)n2)cc1)C(=O)O)C(=O)Nc1cccc(OC(F)(F)F)c1` [Compound 3619] stands 0.01 to 10 nM; under `O=C(NCC[C@H](NC(=O)c1ccc(Nc2nc(NC3(c4ccc(Cl)cc4)CC3)nc(OCC(F)(F)F)n2)cc1)C(=O)O)C(=O)Nc1cccc(Oc2ccccc2)c1` [Compound 3620], 0.01 to 10 nM. On the same count and under the same terms, under `O=C(NCC[C@H](NC(=O)c1ccc(Nc2nc(NC3(c4ccc(Cl)cc4)CC3)nc(OCC(F)(F)F)n2)cc1)C(=O)O)C(=O)Nc1cccc(-c2cnco2)c1` [Compound 3621] stands 0.01 to 10 nM. Same read-out and setting: under `O=C(NCC[C@H](NC(=O)c1ccc(Nc2nc(NC3(c4ccc(Cl)cc4)CC3)nc(OCC(F)(F)F)n2)cc1)C(=O)O)C(=O)Nc1ccc(Oc2cccnc2)nc1` [Compound 3624] stands 0.01 to 10 nM; under `Cc1nccc(-c2cccc(NC(=O)C(=O)NCC[C@H](NC(=O)c3ccc(Nc4nc(NC5(c6ccc(Cl)cc6)CC5)nc(OCC(F)(F)F)n4)cc3)C(=O)O)c2)n1` [Compound 3625], 0.01 to 10 nM. In the case of `CC(C)c1cccc(NC(=O)C(=O)NCC[C@H](NC(=O)c2ccc(Nc3nc(NC4(c5ccc(Cl)cc5)CC4)nc(OCC(F)(F)F)n3)cc2)C(=O)O)c1` [Compound 3627], the EC50 lay within 0.01 to 10 nM. Same read-out and setting: for `O=C(NCC[C@H](NC(=O)c1ccc(Nc2nc(NC3(c4ccc(Cl)cc4)CC3)nc(OCC(F)(F)F)n2)cc1)C(=O)O)C(=O)Nc1ccc(N2CCOCC2)nc1` [Compound 3628] the value was 0.01 to 10 nM; for `CC(C)(C)c1cccc(NC(=O)C(=O)NCC[C@H](NC(=O)c2ccc(Nc3nc(NC4(c5ccc(Cl)cc5)CC4)nc(OCC(F)(F)F)n3)cc2)C(=O)O)c1` [Compound 3629], 0.01 to 10 nM; for `Nc1ccc(NC(=O)C(=O)NCC[C@H](NC(=O)c2ccc(Nc3nc(NC4(c5ccc(Cl)cc5)CC4)nc(OCC(F)(F)F)n3)cc2)C(=O)O)cn1` [Compound 3630], 0.01 to 10 nM. The same measure, in the same setting: under `CC(=O)Nc1ccc(NC(=O)C(=O)NCC[C@H](NC(=O)c2ccc(Nc3nc(NC4(c5ccc(Cl)cc5)CC4)nc(OCC(F)(F)F)n3)cc2)C(=O)O)cn1` [Compound 3631] stands 0.01 to 10 nM. As to `CS(=O)(=O)c1cccc(NC(=O)C(=O)NCC[C@H](NC(=O)c2ccc(Nc3nc(NC4(c5ccc(Cl)cc5)CC4)nc(OCC(F)(F)F)n3)cc2)C(=O)O)c1` [Compound 3632], the EC50 is 0.01 to 10 nM.

In the case of `CC(F)Oc1cccc(NC(=O)C(=O)NCC[C@H](NC(=O)c2ccc(Nc3nc(NC4(c5ccc(Cl)cc5)CC4)nc(OCC(F)(F)F)n3)cc2)C(=O)O)c1` (some centres unmarked) [Compound 3633], the EC50 lay within 0.01 to 10 nM. The same measure, in the same setting: for `O=C(NCC[C@H](NC(=O)c1ccc(Nc2nc(NC3(c4ccc(Cl)cc4)CC3)nc(OCC(F)(F)F)n2)cc1)C(=O)O)C(=O)Nc1cccc(-c2ncc[nH]2)c1` [Compound 3634] the value was 0.01 to 10 nM.

`Cc1ccc(NC(=O)C(=O)NCC[C@H](NC(=O)c2ccc(Nc3nc(NC4(c5ccc(Cl)cc5)CC4)nc(OCC(F)(F)F)n3)cc2)C(=O)O)cn1` [Compound 3636]: the EC50 fell in the range of 0.01 to 10 nM. The same measure, in the same setting: for `O=C(NCC[C@H](NC(=O)c1ccc(Nc2nc(NC3(c4ccc(Cl)cc4)CC3)nc(OCC(F)(F)F)n2)cc1)C(=O)O)C(=O)Nc1cccc(-c2ccncc2)c1` [Compound 3637] the value was 0.01 to 10 nM. Take `O=C(NCC[C@H](NC(=O)c1ccc(Nc2nc(NC3(c4ccc(Cl)cc4)CC3)nc(OCC(F)(F)F)n2)cc1)C(=O)O)C(=O)Nc1cccc(CCc2ccccn2)c1` [Compound 3638]: the EC50 lay within 0.01 to 10 nM. `O=C(NCC[C@H](NC(=O)c1ccc(Nc2nc(NC3(c4ccc(Cl)cc4)CC3)nc(OCC(F)(F)F)n2)cc1)C(=O)O)C(=O)Nc1cccc(Cc2ccccc2)c1` [Compound 3639]: the EC50 is 0.01 to 10 nM. On to `O=C(NCC[C@H](NC(=O)c1ccc(Nc2nc(NC3(c4ccc(Cl)cc4)CC3)nc(OCC(F)(F)F)n2)cc1)C(=O)O)C(=O)Nc1ccc(Oc2ccccc2)nc1` [Compound 3640], for which the EC50 lay in the range of 10 to 1000 nM. Same read-out and setting: under `O=C(NCC[C@H](NC(=O)c1ccc(Nc2nc(NC3(c4ccc(Cl)cc4)CC3)nc(OCC(F)(F)F)n2)cc1)C(=O)O)C(=O)Nc1cccc(S(=O)(=O)N2CCCCC2)c1` [Compound 3641] stands 0.01 to 10 nM; under `Cc1nc(-c2cccc(NC(=O)C(=O)NCC[C@H](NC(=O)c3ccc(Nc4nc(NC5(c6ccc(Cl)cc6)CC5)nc(OCC(F)(F)F)n4)cc3)C(=O)O)c2)cs1` [Compound 3642], 0.01 to 10 nM.

For the compound `Cn1cnnc1-c1cccc(NC(=O)C(=O)NCC[C@H](NC(=O)c2ccc(Nc3nc(NC4(c5ccc(Cl)cc5)CC4)nc(OCC(F)(F)F)n3)cc2)C(=O)O)c1` [Compound 3643], the EC50 was in the range of 10 to 1000 nM. `Cc1ccc(-c2cccc(NC(=O)C(=O)NCC[C@H](NC(=O)c3ccc(Nc4nc(NC5(c6ccc(Cl)cc6)CC5)nc(OCC(F)(F)F)n4)cc3)C(=O)O)c2)cc1` [Compound 3644]: the EC50 lay in the range of 0.01 to 10 nM. Same read-out and setting: under `O=C(NCC[C@H](NC(=O)c1ccc(Nc2nc(NC3(c4ccc(Cl)cc4)CC3)nc(OCC(F)(F)F)n2)cc1)C(=O)O)C(=O)Nc1ccc(N2CCCC2)nc1` [Compound 3645] stands 0.01 to 10 nM; under `O=C(NCC[C@H](NC(=O)c1ccc(Nc2nc(NC3(c4ccc(Cl)cc4)CC3)nc(OCC(F)(F)F)n2)cc1)C(=O)O)C(=O)Nc1ccc(O)nc1` [Compound 3646], 0.01 to 10 nM; under `O=C(NCC[C@H](NC(=O)c1ccc(Nc2nc(NC3(c4ccc(Cl)cc4)CC3)nc(OCC(F)(F)F)n2)cc1)C(=O)O)C(=O)Nc1cccc(CN2CCCC2)c1` [Compound 3647], 0.01 to 10 nM. On the same count and under the same terms, for `CC(C)(O)C=Cc1cccc(NC(=O)C(=O)NCC[C@H](NC(=O)c2ccc(Nc3nc(NC4(c5ccc(Cl)cc5)CC4)nc(OCC(F)(F)F)n3)cc2)C(=O)O)c1` [Compound 3648] the value was 0.01 to 10 nM; for `Cc1csc(-c2cccc(NC(=O)C(=O)NCC[C@H](NC(=O)c3ccc(Nc4nc(NC5(c6ccc(Cl)cc6)CC5)nc(OCC(F)(F)F)n4)cc3)C(=O)O)c2)n1` [Compound 3649], 0.01 to 10 nM.

In the case of `O=C(NCC[C@H](NC(=O)c1ccc(Nc2nc(NC3(c4ccc(Cl)cc4)CC3)nc(OCC(F)(F)F)n2)cc1)C(=O)O)C(=O)Nc1cccc(Cc2ccccn2)c1` [Compound 3650], the concentration for a half-maximal effect (EC50) was 0.01 to 10 nM. The same measure, in the same setting: under `CNS(=O)(=O)c1cccc(NC(=O)C(=O)NCC[C@H](NC(=O)c2ccc(Nc3nc(NC4(c5ccc(Cl)cc5)CC4)nc(OCC(F)(F)F)n3)cc2)C(=O)O)c1` [Compound 3651] stands 0.01 to 10 nM.
